According to ChEMBL document CHEMBL5352448, “Novel tryptanthrin derivatives with benzenesulfonamide substituents: Design, synthesis, and anti-inflammatory evaluation” (Eur J Med Chem, 2023):
pIC50: −log10 of the molar value. Activity calls are given as the source filed them. The calls are words filed in the database; no cut-off is given here.

Experiments:
[1] = system: RAW264.7; assay: Cytotoxicity against mouse RAW264.7 cells assessed as reduction in cell viability at 40 uM incubated for 24 hrs by MTT assay; type: toxicity, cell-based; conditions: raw264.7, 24 h
[2] = system: RAW264.7; assay: Antiinflammatory activity in mouse RAW264.7 cells assessed as inhibition of LPS-induced NO production at 20 uM preincubated with compound for 1 hrs followed by LPS-stimulation and measured after 24 hrs by griess reagent based assay relative to control; type: functional
[3] = system: RAW264.7; assay: Antiinflammatory activity in mouse RAW264.7 cells assessed as inhibition of LPS-induced NO production preincubated with compound for 1 hrs followed by LPS-stimulation and measured after 24 hrs by griess reagent based assay; type: functional, cell-based
[4] = target: T1, MAP kinase p38 (Mus musculus) (UniProt P47811+O08911+Q9WUI1+Q9Z1B7); assay: Inhibition of LPS-induced p38 MAPK signaling activation in mouse RAW264.7 cells assessed as inhibition of p38 alpha phosphorylation preincubated with compound for 1 hrs followed by LPS stimulation and measured after 24 hrs by Western blot analysis; type: cell-based; conditions: dose 1-5 µM
[5] = system: Rattus norvegicus; assay: Antiarthritic activity against adjuvant arthritis-induced Sprague-Dawley rat model assessed as alleviation of inflammatory cell infiltration at 10 to 30 mg/kg, IG pre-administered with FCA for 10 days followed by compound administration once daily for 14 days by H&E staining microscopic analysis; type: functional, organism-based; conditions: dose 10-30 mg/kg, time 14.0 day
[6] = system: RAW264.7; assay: Antiinflammatory activity in mouse RAW264.7 cells assessed as suppression of LPS-induced COX-2 expression preincubated with compound for 1 hrs followed by LPS-stimulation and measured after 24 hrs by Western blot analysis; type: functional, cell-based; conditions: dose 1-5 µM
[7] = system: Rattus norvegicus; assay: Antiarthritic activity against adjuvant arthritis-induced Sprague-Dawley rat model assessed as decrease in TNF-alpha level in serum pre-administered with FCA for 10 days followed by intragastric administration of compound once daily for 14 days by ELISA analysis; type: functional, organism-based; conditions: dose 10-30 mg/kg, route ig, time 14.0 day
[8] = target: Mitogen-activated protein kinase 14 (Mus musculus) (UniProt P47811); assay: Thermal stabilization of P38alpha in LPS-induced mouse RAW264.7 cells at 30 uM preincubated with compound for 1 hrs followed by LPS stimulation and measured after 24 hrs at 50 to 55 degreeC by cellular thermal shift assay; type: cell-based
Mitogen-activated protein kinase 14 (Mus musculus), sequence (P47811 whole entry): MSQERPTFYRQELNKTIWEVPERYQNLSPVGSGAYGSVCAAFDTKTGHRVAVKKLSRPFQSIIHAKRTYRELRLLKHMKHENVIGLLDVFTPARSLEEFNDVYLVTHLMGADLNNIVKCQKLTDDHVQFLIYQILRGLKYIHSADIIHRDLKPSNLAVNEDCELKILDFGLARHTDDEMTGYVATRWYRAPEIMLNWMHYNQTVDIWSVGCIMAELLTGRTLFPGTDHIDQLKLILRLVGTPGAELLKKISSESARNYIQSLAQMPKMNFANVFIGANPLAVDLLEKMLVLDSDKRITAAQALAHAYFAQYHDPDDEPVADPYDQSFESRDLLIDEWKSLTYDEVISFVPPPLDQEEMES

[9] = system: Rattus norvegicus; assay: Antiarthritic activity against adjuvant arthritis-induced Sprague-Dawley rat model assessed as reduction in body weight loss at 10 to 30 mg/kg, IG pre-administered with FCA for 10 days followed by compound administration once daily for 14 days and measured every 4 days; type: functional, organism-based; conditions: dose 10-30 mg/kg, time 14.0 day
[10] = system: Rattus norvegicus; assay: Antiarthritic activity against adjuvant arthritis-induced Sprague-Dawley rat model assessed as alleviation of synovial cell proliferation at 10 to 30 mg/kg, IG pre-administered with FCA for 10 days followed by compound administration once daily for 14 days by H&E staining microscopic analysis; type: functional, organism-based; conditions: dose 10-30 mg/kg, time 14.0 day
[11] = system: RAW264.7; assay: Antiinflammatory activity in mouse RAW264.7 cells assessed as inhibition of LPS-induced IL-1beta production preincubated with compound for 1 hrs followed by LPS-stimulation and measured after 24 hrs by ELISA analysis; type: functional, cell-based
[12] = system: Rattus norvegicus; assay: Antiarthritic activity against adjuvant arthritis-induced Sprague-Dawley rat model assessed as improvement of arthritic index at 10 to 30 mg/kg, IG pre-administered with FCA for 10 days followed by compound administration once daily for 14 days and measured every 4 days; type: functional, organism-based; conditions: dose 10-30 mg/kg, time 14.0 day
[13] = system: Rattus norvegicus; assay: Antiarthritic activity against adjuvant arthritis-induced Sprague-Dawley rat model assessed as decrease in paw swelling pre-administered with FCA for 10 days followed by intragastric administration of compound once daily for 14 days and measured every 4 days; type: functional, organism-based; conditions: dose 10-30 mg/kg, route ig, time 14.0 day
[14] = system: Rattus norvegicus; assay: Antiarthritic activity against adjuvant arthritis-induced Sprague-Dawley rat model assessed as decrease in IL-1beta level in serum pre-administered with FCA for 10 days followed by intragastric administration of compound once daily for 14 days by ELISA analysis; type: functional, organism-based; conditions: dose 10-30 mg/kg, route ig, time 14.0 day
[15] = system: RAW264.7; assay: Antiinflammatory activity in mouse RAW264.7 cells assessed as suppression of LPS-induced iNOS expression preincubated with compound for 1 hrs followed by LPS-stimulation and measured after 24 hrs by Western blot analysis; type: functional, cell-based; conditions: dose 1-5 µM
[16] = target: T1, MAP kinase p38 (Mus musculus); assay: Inhibition of LPS-induced p38 MAPK signaling activation in mouse RAW264.7 cells assessed as reduction of MK2 phosphorylation preincubated with compound for 1 hrs followed by LPS stimulation and measured after 24 hrs by Western blot analysis; type: cell-based; conditions: dose 1-5 µM
[17] = system: RAW264.7; assay: Antiinflammatory activity in mouse RAW264.7 cells assessed as inhibition of LPS-induced TNF-alpha production preincubated with compound for 1 hrs followed by LPS-stimulation and measured after 24 hrs by ELISA analysis; type: functional, cell-based

Row | SMILES | Activity [1] | inhibition at 20 µM [2] [%] | other results
1 | O=C1c2cc(NS(=O)(=O)c3ccccc3)ccc2-n2c1nc1ccccc1c2=O | Non-Toxic | 28.1 | –
2 | Nc1ccc2nc3n(c(=O)c2c1)-c1ccccc1C3=O | – | 38.1 | –
3 | CC(C)(C)c1ccc(S(=O)(=O)Nc2ccc3c(c2)C(=O)c2nc4ccccc4c(=O)n2-3)cc1 | Non-Toxic | 20.6 | –
4 | COc1ccc(S(=O)(=O)Nc2ccc3c(c2)C(=O)c2nc4ccccc4c(=O)n2-3)cc1 | Non-Toxic | 56.4 | –
5 | O=C1c2cc(NS(=O)(=O)c3c(Cl)cccc3Cl)ccc2-n2c1nc1ccccc1c2=O | Non-Toxic | 38.4 | –
6 | O=C1c2ccccc2-n2c1nc1ccc(NS(=O)(=O)c3cccc(F)c3)cc1c2=O | Non-Toxic | 64.4 | –
7 | Nc1ccc2c(c1)C(=O)c1nc3ccccc3c(=O)n1-2 | – | 26.7 | –
8 | O=C1c2cc(NS(=O)(=O)c3cccc(F)c3)ccc2-n2c1nc1ccccc1c2=O | Non-Toxic | 37.5 | –
9 | COc1ccc(S(=O)(=O)Nc2ccc3c(c2)C(=O)c2nc4ccccc4c(=O)n2-3)c(OC)c1 | Non-Toxic | 55.1 | –
10 | COc1ccc(S(=O)(=O)Nc2ccc3c(c2)C(=O)c2nc4ccccc4c(=O)n2-3)cc1OC | Non-Toxic | 57.2 | –
11 | COc1ccc(S(=O)(=O)Nc2ccc3nc4n(c(=O)c3c2)-c2ccccc2C4=O)cc1OC | Non-Toxic | 73 | –
12 | O=C1c2ccccc2-n2c1nc1ccc(NS(=O)(=O)c3ccccc3F)cc1c2=O | Non-Toxic | 88.2 | pIC50 [3]: 5.57
13 | COc1ccc2c(c1)c(CC(=O)O)c(C)n2C(=O)c1ccc(Cl)cc1 [INDOMETHACIN] | Non-Toxic | 32.1 | –
14 | Cc1ccc(S(=O)(=O)Nc2ccc3nc4n(c(=O)c3c2)-c2ccccc2C4=O)cc1 | Non-Toxic | 90.2 | pIC50 [3]: 5.54
15 | O=C1c2ccccc2-n2c1nc1ccc(NS(=O)(=O)c3c(Cl)cccc3Cl)cc1c2=O | Non-Toxic | 64.4 | –
16 | CC(C)(C)c1ccc(S(=O)(=O)Nc2ccc3nc4n(c(=O)c3c2)-c2ccccc2C4=O)cc1 | Non-Toxic | 58.2 | –
17 | O=C1c2cc(NS(=O)(=O)c3ccccc3C(F)(F)F)ccc2-n2c1nc1ccccc1c2=O | Non-Toxic | 54.3 | –
18 | O=C1c2ccccc2-n2c1nc1ccc(NS(=O)(=O)c3ccc(F)cc3)cc1c2=O | Non-Toxic | 85.4 | pIC50 [3]: 5.56

Row | SMILES | Activity [1] | inhibition at 20 µM [2] [%] | other results
19 | O=C1c2ccccc2-n2c1nc1ccc(NS(=O)(=O)c3ccc(OC(F)(F)F)cc3)cc1c2=O | Non-Toxic | 63.6 | –
20 | O=C1c2cc(NS(=O)(=O)c3ccccc3OC(F)(F)F)ccc2-n2c1nc1ccccc1c2=O | Non-Toxic | 46.2 | –
21 | O=C1c2ccccc2-n2c1nc1ccc(NS(=O)(=O)c3ccccc3C(F)(F)F)cc1c2=O | Non-Toxic | 74.9 | –
22 | O=C1c2ccccc2-n2c1nc1ccc(NS(=O)(=O)c3ccc(Br)cc3)cc1c2=O | Non-Toxic | 34.2 | –
23 | O=C1c2cc(NS(=O)(=O)c3ccc(OC(F)(F)F)cc3)ccc2-n2c1nc1ccccc1c2=O | Non-Toxic | 42.9 | –
24 | O=C1c2cc(NS(=O)(=O)c3ccc(F)cc3)ccc2-n2c1nc1ccccc1c2=O | Non-Toxic | 42.5 | –
25 | O=C1c2cc(NS(=O)(=O)c3ccccc3F)ccc2-n2c1nc1ccccc1c2=O | Non-Toxic | 49.1 | –
26 | CC(=O)Nc1ccc(S(=O)(=O)Nc2ccc3nc4n(c(=O)c3c2)-c2ccccc2C4=O)cc1 | Non-Toxic | 47.2 | –
27 | Cc1ccc(S(=O)(=O)Nc2ccc3c(c2)C(=O)c2nc4ccccc4c(=O)n2-3)cc1 | Non-Toxic | 55.8 | –
28 | O=C1c2ccccc2-n2c1nc1ccccc1c2=O [TRYPTANTHRIN] | – | 31.3 | –
29 | O=C1c2ccccc2-n2c1nc1ccc(NS(=O)(=O)c3ccccc3OC(F)(F)F)cc1c2=O | Non-Toxic | 82.1 | pIC50 [3]: 5.41
30 | O=C1c2cc(NS(=O)(=O)c3ccc(Br)cc3)ccc2-n2c1nc1ccccc1c2=O | Non-Toxic | 18.8 | –
31 | COc1ccc(S(=O)(=O)Nc2ccc3nc4n(c(=O)c3c2)-c2ccccc2C4=O)c(OC)c1 | Non-Toxic | 78 | –
32 | O=C1c2ccccc2-n2c1nc1ccc(NS(=O)(=O)c3ccccc3)cc1c2=O | Non-Toxic | 14.5 | –
33 | CC(C)c1cc(C(C)C)c(S(=O)(=O)Nc2ccc3nc4n(c(=O)c3c2)-c2ccccc2C4=O)c(C(C)C)c1 | Non-Toxic | 81.2 | pIC50 [3]: 5.38
34 | CC(=O)Nc1ccc(S(=O)(=O)Nc2ccc3c(c2)C(=O)c2nc4ccccc4c(=O)n2-3)cc1 | Non-Toxic | 17.3 | –
35 | CC(C)c1cc(C(C)C)c(S(=O)(=O)Nc2ccc3c(c2)C(=O)c2nc4ccccc4c(=O)n2-3)c(C(C)C)c1 | Non-Toxic | 31.6 | –
36 | COc1ccc(S(=O)(=O)Nc2ccc3nc4n(c(=O)c3c2)-c2ccccc2C4=O)cc1 | Non-Toxic | 94 | inhibition [4]: Dose-Dependent Effect; Activity [5]: Active; Activity [6]: Dose-Dependent Effect; Activity [7]: Dose-Dependent Effect; Activity [8]: Active; Activity [9]: Active; Activity [10]: Active; Activity [11]: Dose-Dependent Effect; pIC50 [11]: 5.07; Activity [12]: Active; Activity [13]: Dose-Dependent Effect; Activity [14]: Dose-Dependent Effect; Activity [15]: Dose-Dependent Effect; pIC50 [3]: 5.90; inhibition [16]: Dose-Dependent Effect; Activity [17]: Dose-Dependent Effect; pIC50 [17]: 4.94
